Test results reported in US12708625B2, “Pharmaceutical composition for improving or treating post-surgical hypoparathyroidism and treatment method using the same” (DONGGUK UNIVERSITY INDUSTRY-ACADEMIC COOPERATION FOUNDATION, priority 2019, dated 2026).

Legend:
Format in all cases: in vivo, rat
[1] = tested on: hemi-parathyroidectomy model; experiment: Administration of AXT914 in hemi-parathyroidectomy model (Experimental Schedule 1): serum PTH, calcium, phosphorus, urine calcium/creatinine; conditions: for urine calcium/creatinine ratio: 24 h urine on Day 13
Description: (§1) 9-week-old female Wistar rats were purchased from Koatech Co., Ltd. (Korea), and housed in an SPF room at a temperature of 21 to 23° C. and a humidity of 40 to 60% using a standard cage and under 12 hours cycles of light and darkness. The rats were acclimatized to the room for 1 week while being fed with a standard laboratory feed, and then used in the experiment. All care and experiments of experimental animals were performed following the guidelines by Animal Research Institute of Medical Science at Dongguk University, and the experimental schedule was approved by the Animal Institutional Review Board (AIRB No. 2016-04149 and AIRB No. 2019-07188).
(§2) To construct a post-surgical hypoparathyroidism rat model, 10-week-old rats acclimatized for 1 week were used.
(§3) To identify the parathyroid gland, a photosensitization method using 5-aminolevulinic acid hydrochloride (5-ALA) was performed. Briefly, a 50 mg/mL 5-ALA solution was prepared by suspending a 5-ALA powder (Sigma-Aldrich Korea, 5-aminolevulinic acid, #A3785, purity ≥98%) in a 0.9% NaCl solution. The rats were injected intraperitoneally with 500 mg/kg of the 5-ALA solution and after 2 hours, intramuscularly with Zoletil 50 (Virbac Laboratories, France) (0.1 mL/kg of body weight) and Rompun® (Bayer, Germany) (0.1 mL/kg of body weight). The anesthetized rats were laid down and the anterior neck and chest area were disinfected with povidone-iodine. In the surgical procedure, the trachea and the thyroid glands were exposed by incising the skin longitudinally from the midline of the neck. Both parathyroid glands showing a red fluorescent color were identified using blue light with a wavelength of 405±3 nm (Ergonomic LED Light Sources, Ocean Optics Inc., #LS-405, USA). In the case of the hemi-parathyroidectomy model, only one of both the parathyroid glands was removed. In the case of total parathyroidectomy and auto-transplantation model, both the parathyroid glands were removed, and then cut into small pieces, put into a small pocket made in the right sternocleidomastoid muscle (SCM), and the pocket was sutured with a […].
(§4) AXT914 was obtained by Novartis Pharma AG (Switzerland). The AXT914 was prepared in the form of a microemulsion by the following method. Briefly, after Cremophor RH40 was heated to 65° C. with stirring, the Cremophor RH40, Capmul MCM, triethyl citrate, and ethanol absolute were mixed at a weight ratio of 34.6%, 42%, 8.4%, and 10%, respectively. After a clear solution obtained by stirring the mixture for 1 hour was used as a vehicle and mixed with AXT914 (weight ratio of 5%), the resulting mixture was stirred at an ambient temperature for 8 to 12 hours. A finally obtained microemulsion preconcentrate was diluted 10 folds with deionized water (DW) and mixed vigorously before administration.
Referring to FIG. 1a, rats that had undergone hemi-parathyroidectomy were divided into a vehicle administration group (n=11), an AXT914 administration group 1 (n=10), and an AXT914 administration group 2 (n=11). A sham surgery group (n=9), which had undergone sham surgery, was also prepared. One week after the surgery, the AXT914 prepared in 1-3. was orally administered to the rats once daily for 2 weeks using a zonde needle. 5 mg/kg and 10 mg/kg of the AXT914 were administered to AXT914 administration groups 1 and 2, respectively. The vehicle (a mixture mixed with AXT914 in 1-3.) was orally administered to the vehicle administration group and the sham surgery group. Urine of the rats was collected for 24 hours on Day 13 after the start of drug administration. Blood was collected from the tails of the rats before the administration of drug (baseline) and from the tails of the rats at 0, 30, 120, 240, 360, and 720 minutes on Day 14 after the start of drug administration, and the rats were sacrificed. […]

[2] = tested on: total parathyroidectomy and auto-transplantation model; experiment: H&E staining of transplanted parathyroid tissue in SCM, total parathyroidectomy and auto-transplantation model (Experimental Schedule 3); conditions: Day 18, vs vehicle administration group
Description: as §1, §2
To identify the parathyroid gland, a photosensitization method using 5-aminolevulinic acid hydrochloride (5-ALA) was performed. Briefly, a 50 mg/mL 5-ALA solution was prepared by suspending a 5-ALA powder (Sigma-Aldrich Korea, 5-aminolevulinic acid, #A3785, purity ≥98%) in a 0.9% NaCl solution. The rats were injected intraperitoneally with 500 mg/kg of the 5-ALA solution and after 2 hours, intramuscularly with Zoletil 50 (Virbac Laboratories, France) (0.1 mL/kg of body weight) and Rompun® (Bayer, Germany) (0.1 mL/kg of body weight). […]

[3] = tested on: total parathyroidectomy and auto-transplantation model; experiment: Administration of AXT914 in total parathyroidectomy and auto-transplantation model (Experimental Schedule 2): serum PTH, calcium, phosphorus; conditions: 10 mg/kg oral once daily 3 weeks
Description: as §1, §2, §3, §4
Referring to FIG. 1b, rats that had undergone total parathyroidectomy and auto-transplantation were divided into a vehicle administration group (n=8) and an AXT914 administration group (n=8). A sham surgery group (n=6), which had undergone sham surgery, was also prepared. One week after the surgery, the AXT914 prepared in 1-3. was orally administered to the rats once daily for 3 weeks using a zonde needle, and the rats were sacrificed 1 week after the completion of administration and used for analysis. 10 mg/kg of AXT914 was administered to the AXT914 administration group. The vehicle was orally administered to the vehicle administration group and the sham surgery group. Blood was collected from the tails of the rats before the administration of drug (baseline) and from the tails of the rats on Day 21 and Day 28 after the start of drug administration.
Serum samples obtained by centrifugation of BD Microtainer SSTTM (prod. No. REF 365967, Becton Dickinson) containing blood, and were stored in a −80° C. deep freezer. […]

[4] = tested on: total parathyroidectomy and auto-transplantation model; experiment: Immunohistochemical staining of transplanted parathyroid tissue in SCM, total parathyroidectomy and auto-transplantation model (Experimental Schedule 3); conditions: Day 18; for expression of Ki67 (marker of cell proliferation) in transplanted parathyroid tissue: between administration groups
Description: as §1, §2, §3, §4
Referring to FIG. 1c, rats that had undergone total parathyroidectomy and auto-transplantation were divided into a vehicle administration group (n=11), an AXT914 administration group 1 (n=11), and an AXT914 administration group 2 (n=11). A sham surgery group (n=7), which had undergone sham surgery, was also prepared. Six days after the surgery, the AXT914 prepared in 1-3. was orally administered to the rats once daily every 5 days weekly for 18 days using a zonde needle, and the rats were sacrificed on Day 18 of the completion of administration and used for analysis. 10 mg/kg and 20 mg/kg of the AXT914 were orally administered to AXT914 administration groups 1 and 2, respectively. The vehicle was orally administered to the vehicle administration group and the sham surgery group. Blood was collected from the tails of the rats before the administration of drug (baseline) and collected from the tails of the rats on Day 18 of the completion of drug administration. A histological analysis was performed by sacrificing the rats to isolate SCMs with parathyroid glands autotransplanted. […]

[5] = Day 21, vs vehicle administration group
[6] = Day 28 (7 days after drug discontinuation), vs vehicle administration group
[7] = 10 mg/kg oral 5 days weekly for 18 days, vs vehicle administration group
[8] = 20 mg/kg oral 5 days weekly for 18 days, vs vehicle administration group

## C#CCOc1ccc2c(c1)c(-c1ccc(C(C)C)cc1)nc(=O)n2Cc1ccc(Br)cc1 [AXT914]
[1]; 5 mg/kg oral once daily 2 weeks (group 1), Day 14, 120 minutes, vs vehicle administration group
  serum PTH level: higher than that of the vehicle administration group
[1]; 5 mg/kg oral once daily 2 weeks (group 1), Day 14, vs sham surgery group
  serum PTH level: no statistical difference from the sham surgery group
[1]; 5 mg/kg oral once daily 2 weeks, Day 14, all times, vs vehicle administration group
  serum calcium level: significantly higher calcium levels than those of the vehicle administration group
[1]; 5 mg/kg oral once daily 2 weeks, Day 14, vs sham surgery group
  serum phosphorus level: no statistical difference from the sham surgery group
[1]; 5 mg/kg oral once daily 2 weeks, Day 14 at 0, 30 and 720 minutes, vs sham surgery group
  serum calcium level: no statistical difference from those of the sham surgery group
[1]; 5 mg/kg oral once daily 2 weeks, Day 14 at 30, 120 and 360 minutes, vs vehicle administration group
  serum phosphorus level: significantly lower
[1]; 5 mg/kg oral once daily, vs sham surgery group
  urine calcium/creatinine ratio: no difference between the sham surgery group and the AXT914 administration groups
[1]; 5 mg/kg oral once daily, vs vehicle administration group
  urine calcium/creatinine ratio: vehicle administration group had a significantly higher urine calcium/creatinine ratio than the sham surgery group and the AXT914 administration groups
[1]; 10 mg/kg oral once daily 2 weeks (group 2), Day 14, all times, vs the other groups
  serum PTH level: significantly higher than those in the other groups
[1]; 10 mg/kg oral once daily 2 weeks, Day 14, all times, vs vehicle administration group
  serum calcium level: significantly higher calcium levels than those of the vehicle administration group
[1]; 10 mg/kg oral once daily 2 weeks, Day 14, vs sham surgery group
  serum phosphorus level: no statistical difference from the sham surgery group
[1]; 10 mg/kg oral once daily 2 weeks, Day 14 at 0 and 30 minutes, vs sham surgery group
  serum calcium level: no statistical difference from those of the sham surgery group
[1]; 10 mg/kg oral once daily 2 weeks, Day 14 at 30, 240, 360 and 720 minutes, vs vehicle administration group
  serum phosphorus level: significantly lower
[1]; 10 mg/kg oral once daily, vs sham surgery group
  urine calcium/creatinine ratio: no difference between the sham surgery group and the AXT914 administration groups
[1]; 10 mg/kg oral once daily, vs vehicle administration group
  urine calcium/creatinine ratio: vehicle administration group had a significantly higher urine calcium/creatinine ratio than the sham surgery group and the AXT914 administration groups
[2]; 10 mg/kg oral 5 days weekly for 18 days (group 1)
  area increase of transplanted parathyroid tissue (H&E staining): 36%
[2]; 20 mg/kg oral 5 days weekly for 18 days (group 2), significant
  area increase of transplanted parathyroid tissue (H&E staining): about 3 times
[3]; Day 21, vs sham surgery group
  serum PTH level: lower than those in the sham surgery group
  serum calcium level: no difference from those in the sham surgery group
  serum phosphorus level: no difference from those in the sham surgery group
[3]; [5]
  serum PTH level: significantly higher than those in the vehicle administration group
  serum calcium level: significantly higher than those in the vehicle administration group
  serum phosphorus level: significantly lower than those in the vehicle administration group
[3]; Day 28 (7 days after drug discontinuation), vs sham surgery group
  serum calcium level: lower than those in the sham surgery group
[3]; [6]
  serum calcium level: still higher than those in the vehicle administration group
  serum phosphorus level: lower than those in the vehicle administration group, but there was no statistical difference
[4]; 10 mg/kg oral 5 days weekly for 18 days
  expression of Ki67 (marker of cell proliferation) in transplanted parathyroid tissue: not different between the administration groups
[4]; [7]
  FGF2 positive cells in transplanted parathyroid tissue: not statistically significant, but showed an increasing pattern
  increase in the expression of VEGFA in transplanted parathyroid tissue: about 6 fold
  increase of expression level of PTH in transplanted parathyroid tissue: about 2 fold
  increase of number of CD31 positive cells in transplanted parathyroid tissue: about 3 folds
[4]; 20 mg/kg oral 5 days weekly for 18 days
  expression of Ki67 (marker of cell proliferation) in transplanted parathyroid tissue: not different between the administration groups
[4]; [8]
  FGF2 positive cells in transplanted parathyroid tissue: not statistically significant, but showed an increasing pattern
  expression of MCL1 in transplanted parathyroid tissue: not statistically significant in AXT914 administration group 2, but showed an increasing pattern
  increase in the expression of VEGFA in transplanted parathyroid tissue: about 10 fold
  increase of expression level of PTH in transplanted parathyroid tissue: about 2 fold
  increase of number of CD31 positive cells in transplanted parathyroid tissue: about 4.5 folds
